Source: ChEMBL document CHEMBL1148388, “Restriction of a peptide turn conformation and conformational analysis of guanidino group using arginine-proline fused amino acids: application to mini atrial natriuretic peptide on binding to the receptor” (J Med Chem, 2004)
Numbered stars: 1 amine (or outer) side, 2 acyl side, 3 side chain; on linkers, the order of the positions; unused ones are H or OH. Bridge positions count the residues as written; N and C are the ends. Square brackets hold non-standard residues; d marks the D form. Peptide text beside a SMILES is read from it. X2 = NC(N)=NCC[C@@H]1C[C@@H](C(=O)[*:2])N([*:1])C1; X1 = NC(N)=NCC[C@H]1C[C@@H](C(=O)[*:2])N([*:1])C1

assay: Effective concentration required for production of cGMP in Chinese hamster ovary cells expressing natriuretic peptide receptor A (NPR-A); format: functional, cell-based

Compared with `CC[C@H](C)[C@@H]1NC(=O)[C@H](CCCN=C(N)N)NC(=O)[C@H](CC(=O)O)NC(=O)[C@H](CCSC)NC(=O)[C@@H]2CCCN2C(=O)CNC(=O)CNC(=O)[C@H](Cc2ccccc2)NC(=O)[C@H](Cc2c[nH]cn2)NC(=O)[C@@H](NC(=O)[C@@H](N)CCSC)CSSC[C@@H](C(=O)N[C@@H](Cc2ccc(O)cc2)C(=O)N[C@@H](CCCN=C(N)N)C(N)=O)NC(=O)[C@H](CO)NC1=O`, `CC[C@H](C)[C@@H]1NC(=O)[C@H](CCCN=C(N)N)NC(=O)[C@H](CC(=O)O)NC(=O)[C@H](CCSC)NC(=O)[C@H](C)NC(=O)CNC(=O)CNC(=O)[C@H](Cc2ccccc2)NC(=O)[C@H](Cc2c[nH]cn2)NC(=O)[C@@H](NC(=O)[C@@H](N)CCSC)CSSC[C@@H](C(=O)N[C@@H](Cc2ccc(O)cc2)C(=O)N[C@@H](CCCN=C(N)N)C(N)=O)NC(=O)[C@H](CO)NC1=O` is 2.4-fold higher in EC50: 58.1 nM for the first, 137 nM for the second.

First: CC[C@H](C)[C@@H]1NC(=O)[C@H](CCCN=C(N)N)NC(=O)[C@H](CC(=O)O)NC(=O)[C@H](CCSC)NC(=O)[C@@H]2C[C@@H](CCN=C(N)N)CN2C(=O)CNC(=O)CNC(=O)[C@H](Cc2ccccc2)NC(=O)[C@H](Cc2c[nH]cn2)NC(=O)[C@@H](NC(=O)[C@@H](N)CCSC)CSSC[C@@H](C(=O)N[C@@H](Cc2ccc(O)cc2)C(=O)N[C@@H](CCCN=C(N)N)C(N)=O)NC(=O)[C@H](CO)NC1=O (H-MCHFGG[X2]MDRISCYR-NH2; disulfide 2-13)
Second: CC[C@H](C)[C@@H]1NC(=O)[C@H](CCCN=C(N)N)NC(=O)[C@H](CC(=O)O)NC(=O)[C@H](CCSC)NC(=O)[C@@H]2C[C@H](CCN=C(N)N)CN2C(=O)CNC(=O)CNC(=O)[C@H](Cc2ccccc2)NC(=O)[C@H](Cc2c[nH]cn2)NC(=O)[C@@H](NC(=O)[C@@H](N)CCSC)CSSC[C@@H](C(=O)N[C@@H](Cc2ccc(O)cc2)C(=O)N[C@@H](CCCN=C(N)N)C(N)=O)NC(=O)[C@H](CO)NC1=O (H-MCHFGG[X1]MDRISCYR-NH2; disulfide 2-13)
The EC50 of the first is 3.5-fold lower: 1.3 nM for the first, 4.6 nM for the second.

assay: Relative biological activity was measured as EC50 analogue/ EC50 miniANP; format: functional

First: CC[C@H](C)[C@@H]1NC(=O)[C@@H](CCCN=C(N)N)NC(=O)[C@H](CC(=O)O)NC(=O)[C@@H](CCSC)NC(=O)[C@H](C)NC(=O)CNC(=O)CNC(=O)[C@@H](Cc2ccccc2)NC(=O)[C@H](Cc2c[nH]cn2)NC(=O)[C@@H](NC(=O)[C@@H](N)CCSC)CSSC[C@H](C(=O)N[C@@H](Cc2ccc(O)cc2)C(=O)N[C@@H](CCCN=C(N)N)C(N)=O)NC(=O)[C@@H](CO)NC1=O
Second: CC[C@H](C)[C@@H]1NC(=O)[C@@H](CCCN=C(N)N)NC(=O)[C@H](CC(=O)O)NC(=O)[C@@H](CCSC)NC(=O)[C@@H]2CCCN2C(=O)CNC(=O)CNC(=O)[C@@H](Cc2ccccc2)NC(=O)[C@H](Cc2c[nH]cn2)NC(=O)[C@@H](NC(=O)[C@@H](N)CCSC)CSSC[C@H](C(=O)N[C@@H](Cc2ccc(O)cc2)C(=O)N[C@@H](CCCN=C(N)N)C(N)=O)NC(=O)[C@@H](CO)NC1=O
The Ratio of the first is higher: 44.3 for the first, 18.7 for the second.

Compound `CC[C@H](C)[C@@H]1NC(=O)[C@@H](CCCN=C(N)N)NC(=O)[C@H](CC(=O)O)NC(=O)[C@@H](CCSC)NC(=O)[C@H](CCCN=C(N)N)NC(=O)CNC(=O)CNC(=O)[C@@H](Cc2ccccc2)NC(=O)[C@H](Cc2c[nH]cn2)NC(=O)[C@@H](NC(=O)[C@@H](N)CCSC)CSSC[C@H](C(=O)N[C@@H](Cc2ccc(O)cc2)C(=O)N[C@@H](CCCN=C(N)N)C(N)=O)NC(=O)[C@@H](CO)NC1=O` [MiniANP] has a Ratio of 1.
